Assay results reported in patent publication US20230365571A1, “COMPOUNDS AND COMPOSITIONS AS Sppl2a INHIBITORS” (Novartis AG, priority 2020, published 2023).

Key:
[1] = target: T1, human SPPL2a (Homo sapiens, UniProt Q8TCT8); assay: Sppl2a TL (translocation) imaging assay in U-2 OS cells; assay type: cell-based; set-up: expressed in transfected cells; conditions: U-2 OS cells expressing human SPPL2a and EGFP-TNFα(aa1-76) NTF substrate; 24 h
T1 sequence (Q8TCT8 26-520): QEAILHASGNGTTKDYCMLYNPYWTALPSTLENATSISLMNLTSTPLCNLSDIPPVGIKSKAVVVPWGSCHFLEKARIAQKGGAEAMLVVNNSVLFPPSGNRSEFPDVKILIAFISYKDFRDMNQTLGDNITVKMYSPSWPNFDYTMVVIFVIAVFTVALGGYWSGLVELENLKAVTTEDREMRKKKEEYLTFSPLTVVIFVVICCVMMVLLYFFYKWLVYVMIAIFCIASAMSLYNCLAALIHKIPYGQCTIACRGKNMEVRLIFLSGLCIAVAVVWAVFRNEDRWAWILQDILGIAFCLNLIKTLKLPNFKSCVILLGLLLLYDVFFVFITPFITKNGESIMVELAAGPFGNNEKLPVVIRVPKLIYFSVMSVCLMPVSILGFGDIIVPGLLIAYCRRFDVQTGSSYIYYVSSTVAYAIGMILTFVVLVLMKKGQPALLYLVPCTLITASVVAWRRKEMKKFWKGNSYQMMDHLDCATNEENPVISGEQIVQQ
Outline: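 U-2 OS cells stably expressing human SPPL2a plus doxycycline-induced EGFP-TNFα(aa1-76) NTF, treated 24 h at 37 °C with inhibitor (100 μM–1 nM, 11 points, 0.9% DMSO, 5 μg/mL doxycycline). Imaging of nuclear-minus-cytoplasmic EGFP intensity; % inhibition versus 0.5 μM LY-411,575 and DMSO, IC50 by nonlinear regression; CC50 from cell count.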

[2] = target: T1, human SPPL2a; assay: Sppl2a RGA (reporter gene assay) in HEK293 cells; assay type: cell-based; set-up: expressed in transfected cells; host or cells: HEK293 (transient); conditions: NT-TNF-VP16-Gal4 substrate, Gal4-luciferase reporter, 24 h
Outline: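 HEK293 cells transiently co-transfected with human SPPL2a, NT-TNF-VP16-Gal4 substrate and Gal4-luciferase reporter, compound added within 5 h. After 24 h at 37 °C, luciferase luminescence measured; IC50 from concentration versus normalized luminescence.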

| IC50 [1] [nM] | IC50 [2] [nM] | Structure (SMILES) |
| --- | --- | --- |
| 10 | 7 | C[C@H](CC(=O)Nc1cn(-c2ccc(C(F)(F)F)nc2)nc1Cl)C(=O)N[C@@H]1C(=O)N2CCCN2Cc2ccccc21 [Example 88, (R)-N^4-(3-Chloro-1-(6-(trifluoromethyl)pyridin-3-yl)-1H-pyrazol-4-yl)-2-methyl-N^1-((S)-11-oxo-2,3,10,11-tetrahydro-1H,5H-benzo[d]pyrazolo [1,2-a][1,2]diazepin-10-yl)succinamide] |
| 12 | 11 | Cc1nn(-c2ccc(C(F)(F)F)nc2)cc1NC(=O)C[C@@H](C)C(=O)N[C@@H]1C(=O)N2CCCN2Cc2ccccc21 [Example 92, (R)-2-Methyl-N^4-(3-methyl-1-(6-(trifluoromethyl)pyridin-3-yl)-1H-pyrazol-4-yl)-N^1-((S)-11-oxo-2,3,10,11-tetrahydro-1H,5H-benzo[d]pyrazolo [1,2-a][1,2]diazepin-10-yl)succinamide] |
| 12 | 23 | C[C@H](CC(=O)Nc1sc(-c2cnn(C3COC3)c2)nc1Cl)C(=O)N[C@@H]1C(=O)N2CCCN2Cc2ccccc21 [Example 95, (R)-N^4-(4-Chloro-2-(1-(oxetan-3-yl)-1H-pyrazol-4-yl)thiazol-5-yl)-2-methyl-N^1-((S)-11-oxo-2,3,10,11-tetrahydro-1H,5H-benzo[d]pyrazolo [1,2-a][1,2]diazepin-10-yl)succinamide] |
| 12 | 28 | C[C@H](CC(=O)Nc1cc(-c2ccco2)nn1C1CC1)C(=O)N[C@@H]1C(=O)N2CCCN2Cc2ccccc21 [Example 96, (R)-N^4-(1-Cyclopropyl-3-(furan-2-yl)-1H-pyrazol-5-yl)-2-methyl-N^1-((S)-11-oxo-2,3,10,11-tetrahydro-1H,5H-benzo[d]pyrazolo [1,2-a][1,2]diazepin-10-yl)succinamide] |
| 13 | 15 | COc1ccc(-c2cc(NC(=O)C[C@@H](C)C(=O)N[C@@H]3C(=O)N4CCCN4Cc4ccccc43)n(C)n2)cn1 [Example 97, (R)-N^4-(3-(6-Methoxypyridin-3-yl)-1-methyl-1H-pyrazol-5-yl)-2-methyl-N^1-((S)-11-oxo-2,3,10,11-tetrahydro-1H,5H-benzo[d]pyrazolo [1,2-a][1,2]diazepin-10-yl)succinamide] |
| 14 | 8 | C[C@H](CC(=O)Nc1cc(-c2cncc(C(F)(F)F)c2)nn1C)C(=O)N[C@@H]1C(=O)N2CCCN2Cc2ccccc21 [Example 98, (R)-2-Methyl-N^4-(1-methyl-3-(5-(trifluoromethyl)pyridin-3-yl)-1H-pyrazol-5-yl)-N^1-((S)-11-oxo-2,3,10,11-tetrahydro-1H,5H-benzo[d]pyrazolo [1,2-a][1,2]diazepin-10-yl)succinamide] |
| 17 | 17 | O=C(C[C@H](C(=O)N[C@@H]1C(=O)N2CCCN2C(=O)c2ccccc21)C1CC1)Nc1sc(-c2cnn(C(F)F)c2)nc1Cl [Example 104, (S)-N^4-(4-Chloro-2-(1-(difluoromethyl)-1H-pyrazol-4-yl)thiazol-5-yl)-2-cyclopropyl-N^1-((S)-5,11-dioxo-2,3,10,11-tetrahydro-1H,5H-benzo[d]pyrazolo [1,2-a][1,2]diazepin-10-yl)succinamide] |
| 18 | 23 | Cc1ccc(-c2cc(NC(=O)C[C@@H](C)C(=O)N[C@@H]3C(=O)N4CCCN4Cc4ccccc43)n(C)n2)cn1 [Example 105, (R)-2-Methyl-N^4-(1-methyl-3-(6-methylpyridin-3-yl)-1H-pyrazol-5-yl)-N^1-((S)-11-oxo-2,3,10,11-tetrahydro-1H,5H-benzo[d]pyrazolo [1,2-a][1,2]diazepin-10-yl)succinamide] |
| 10 | 8 | O=C(C[C@H](C(=O)N[C@@H]1C(=O)N2CC3(CC3)CN2C(=O)c2ccccc21)C1CC1)Nc1sc(-c2ccc(C(F)(F)F)nc2)nc1Cl [Example 106, (S)-N^4-(4-Chloro-2-(6-(trifluoromethyl)pyridin-3-yl)thiazol-5-yl)-2-cyclopropyl-N^1-((S)-5,11-dioxo-10,11-dihydro-1H,3H,5H-spiro[benzo[d]pyr-azolo[1,2-a][1,2]diazepine-2,1′-cyclopropan]-10-yl)succinamide] |
| 15 | 11 | O=C(C[C@H](C(=O)N[C@@H]1C(=O)N2CCCN2C(=O)c2ccccc21)C1CC1)Nc1sc(-c2ccc(C(F)(F)F)nc2)nc1Cl [Example 107, (S)-N^4-(4-Chloro-2-(6-(trifluoromethyl)pyridin-3-yl)thiazol-5-yl)-2-cyclopropyl-N^1-((S)-5,11-dioxo-2,3,10,11-tetrahydro-1H,5H-benzo[d]pyrazolo [1,2-a][1,2]diazepin-10-yl)succinamide] |
| 3 | 3 | C[C@H](CC(=O)Nc1sc(-c2ccc(C(F)(F)F)nc2)nc1Cl)C(=O)N[C@@H]1C(=O)N2CCCN2Cc2ccccc21 [Example 108, (R)-N^4-(4-Chloro-2-(6-(trifluoromethyl)pyridin-3-yl)thiazol-5-yl)-2-methyl-N^1-((S)-11-oxo-2,3,10,11-tetrahydro-1H,5H-benzo[d]pyrazolo [1,2-a][1,2]diazepin-10-yl)succinamide] |
| 2 | 3 | C[C@H](CC(=O)Nc1cc(C(=O)Nc2ccccc2F)nn1C)C(=O)N[C@@H]1C(=O)N2CCCN2Cc2ccccc21 [Example 109, (R)—N^4-(3-((2-fluorophenyl)carbamoyl)-1-methyl-1H-pyrazol-5-yl)-2-methyl-N^1—((S)-11-oxo-2,3,10,11-tetrahydro-1H,5H-benzo[d]pyrazolo[1,2-a][1,2]diazepin-10-yl)succinamide] |
| 15 | 20 | Cc1cccc(C)c1NC(=O)c1cc(NC(=O)C[C@@H](C)C(=O)N[C@@H]2C(=O)N3CCCN3Cc3ccccc32)n(C)n1 [Example 110] |
| 666 | 77 | C[C@H](Cc1nc2ccccc2[nH]1)C(=O)N[C@@H]1C(=O)N2CCCN2Cc2ccccc21 [Example 111, (R)-3-(1H-benzo[d]imidazol-2-yl)-2-methyl-N—((S)-11-oxo-2,3,10,11-tetrahydro-1H,5H-benzo[d]pyrazolo[1,2-a][1,2]diazepin-10-yl)propanamide] |
| 139 | 28 | Cc1cccc2nc(C[C@@H](C)C(=O)N[C@@H]3C(=O)N4CCCN4Cc4ccccc43)[nH]c12 [Example 112, (R)-2-methyl-3-(7-methyl-1H-benzo[d]imidazol-2-yl)-N-((S)-11-oxo-2,3,10,11-tetrahydro-1H,5H-benzo[d]pyrazolo[1,2-a][1,2]diazepin-10-yl)propanamide] |
| 180 | 42 | C[C@H](Cc1nc2cccc(Br)c2[nH]1)C(=O)N[C@@H]1C(=O)N2CCCN2Cc2ccccc21 [Example 113, (R)-3-(7-bromo-1H-benzo[d]imidazol-2-yl)-2-methyl-N-((S)-11-oxo-2,3,10,11-tetrahydro-1H,5H-benzo[d]pyrazolo[1,2-a][1,2]diazepin-10-yl)propanamide] |
| 548 | 63 | C[C@H](Cc1nc2cccc(C(F)(F)F)c2[nH]1)C(=O)N[C@@H]1C(=O)N2CCCN2Cc2ccccc21 [Example 114, (R)-2-methyl-N-((S)-11-oxo-2,3,10,11-tetrahydro-1H,5H-benzo[d]pyrazolo[1,2-a][1,2]diazepin-10-yl)-3-(7-(trifluoromethyl)-1H-benzo[d]imidazol-2-yl)propanamide] |
| 3970 | 228 | C[C@H](Cc1nc2c(Cl)cccc2[nH]1)C(=O)N[C@@H]1C(=O)N2CCCN2Cc2ccccc21 [Example 115, (R)-3-(4-chloro-1H-benzo[d]imidazol-2-yl)-2-methyl-N-((S)-11-oxo-2,3,10,11-tetrahydro-1H,5H-benzo[d]pyrazolo[1,2-a][1,2]diazepin-10-yl)propanamide] |
| 116 | 13 | Cc1c(F)ccc2nc(C[C@@H](C)C(=O)N[C@@H]3C(=O)N4CCCN4Cc4ccccc43)[nH]c12 [Example 116, (R)-3-(6-fluoro-7-methyl-1H-benzo[d]imidazol-2-yl)-2-methyl-N-((S)-11-oxo-2,3,10,11-tetrahydro-1H,5H-benzo[d]pyrazolo[1,2-a][1,2]diazepin-10-yl)propanamide] |
| 140 | 21 | Cc1cc(F)cc2nc(C[C@@H](C)C(=O)N[C@@H]3C(=O)N4CCCN4Cc4ccccc43)[nH]c12 [Example 117, (R)-3-(5-fluoro-7-methyl-1H-benzo[d]imidazol-2-yl)-2-methyl-N-((S)-11-oxo-2,3,10,11-tetrahydro-1H,5H-benzo[d]pyrazolo[1,2-a][1,2]diazepin-10-yl)propanamide] |
